From PubChem BioAssay AID1918934 (Molecular Pharmacology Branch, DTP, NCI, 2023)
pIC50: −log10 of the molar value. Several values for one entry are separate records, joined by “and”; a condition that tells them apart may be missing. Equal entries are not always repeated.

Test system: 292921-168-R-J2-PDC complex spheroid viability
Experiment: Anticancer human tumor 292921-168-R-J2-PDC patient-derived pancreatic carcinoma cell line growth inhibition
Details: for pIC50: curve of first compound; for viability, T/C: stronger effect = lower value
Procedure, shortened: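 Complex spheroids of tumor cells with HUVEC and human MSCs, exposed to iadademstat combined with other agents. Each agent tested in half-log steps from near clinical Cmax (else 10 microM top), DMSO ≤0.25%.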

[1] = second compound 0.1 µM, first compound 0.0316 µM
[2] = second compound 0.1 µM, first compound 0.1 µM
[3] = second compound 0.316 µM, first compound 0.0316 µM
[4] = second compound 0.316 µM, first compound 0.1 µM
[5] = second compound 1 µM, first compound 0.0316 µM
[6] = second compound 1 µM, first compound 0.1 µM
[7] = second compound 3.16 µM, first compound 0.0316 µM
[8] = second compound 3.16 µM, first compound 0.1 µM
[9] = second compound 10 µM, first compound 0.0316 µM
[10] = second compound 10 µM, first compound 0.1 µM
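Further: seven day compound exposure before luminescent viability read.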
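Wherever viability, T/C is given: 100% = DMSO vehicle control wells.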

O=C(c1cc(Cc2n[nH]c(=O)c3ccccc23)ccc1F)N1CCN(C(=O)C2CC2)CC1 + NC1CC1c1ccc(-c2cccc(O)c2)cc1
pIC50 (second compound 0.1 µM): 5.35 | pIC50 (second compound 0.316 µM): 5.58 | pIC50 (second compound 1 µM): 5.66 | pIC50 (second compound 3.16 µM): 5.86 | pIC50 (second compound 10 µM): 6.56 | viability, T/C [1]: 89.5% | viability, T/C [2]: 104% | viability, T/C (second compound 0.1 µM, first compound 0.316 µM): 78.8% | viability, T/C (second compound 0.1 µM, first compound 1 µM): 74.3% | viability, T/C (second compound 0.1 µM, first compound 3.16 µM): 58.1% | viability, T/C (second compound 0.1 µM, first compound 10 µM): 33.1% | viability, T/C [3]: 75% | viability, T/C [4]: 67.8% | viability, T/C (second compound 0.316 µM, first compound 0.316 µM): 67% | viability, T/C (second compound 0.316 µM, first compound 1 µM): 68.9% | viability, T/C (second compound 0.316 µM, first compound 3.16 µM): 46.6% | viability, T/C (second compound 0.316 µM, first compound 10 µM): 31.2% | viability, T/C [5]: 60.1% | viability, T/C [6]: 69.2% | viability, T/C (second compound 1 µM, first compound 0.316 µM): 64.5% | viability, T/C (second compound 1 µM, first compound 1 µM): 64.5% | viability, T/C (second compound 1 µM, first compound 3.16 µM): 43.1% | viability, T/C (second compound 1 µM, first compound 10 µM): 32.3% | viability, T/C [7]: 64.5% | viability, T/C [8]: 60.1% | viability, T/C (second compound 3.16 µM, first compound 0.316 µM): 63% | viability, T/C (second compound 3.16 µM, first compound 1 µM): 54.1% | viability, T/C (second compound 3.16 µM, first compound 3.16 µM): 39% | viability, T/C (second compound 3.16 µM, first compound 10 µM): 32.8% | viability, T/C [9]: 61.3% | viability, T/C [10]: 51.2% | viability, T/C (second compound 10 µM, first compound 0.316 µM): 53.6% | viability, T/C (second compound 10 µM, first compound 1 µM): 42.2% | viability, T/C (second compound 10 µM, first compound 3.16 µM): 34% | viability, T/C (second compound 10 µM, first compound 10 µM): 29.6%

NC1CCC(NC2CC2c2ccccc2)CC1 (stereo not given)
viability, T/C (compound 0.1 µM): 65.7% [middle of 25 runs] | viability, T/C (compound 0.316 µM): 56.6% and 63.5% | viability, T/C (compound 1 µM): 58% [middle of 25 runs] | viability, T/C (compound 3.16 µM): 57.4% [middle of 25 runs] | viability, T/C (compound 10 µM): 54.2% [middle of 23 runs]

CC[C@@]1(O)C(=O)OCc2c1cc1n(c2=O)Cc2cc3c(CN(C)C)c(O)ccc3nc2-1 + NC1CC1c1ccc(-c2cccc(O)c2)cc1
pIC50 (second compound 0.1 µM): 8.49 | pIC50 (second compound 0.316 µM): 8.67 | pIC50 (second compound 1 µM): 8.79 | pIC50 (second compound 3.16 µM): 8.67 | pIC50 (second compound 10 µM): 9.43 | viability, T/C (second compound 0.1 µM, first compound 0.000316 µM): 81.3% | viability, T/C (second compound 0.1 µM, first compound 0.001 µM): 78.9% | viability, T/C (second compound 0.1 µM, first compound 0.00316 µM): 48.2% | viability, T/C (second compound 0.1 µM, first compound 0.01 µM): 21.6% | viability, T/C [1]: 8.58% | viability, T/C [2]: 3.36% | viability, T/C (second compound 0.316 µM, first compound 0.000316 µM): 72.8% | viability, T/C (second compound 0.316 µM, first compound 0.001 µM): 65.3% | viability, T/C (second compound 0.316 µM, first compound 0.00316 µM): 41.9% | viability, T/C (second compound 0.316 µM, first compound 0.01 µM): 21% | viability, T/C [3]: 8.47% | viability, T/C [4]: 3.37% | viability, T/C (second compound 1 µM, first compound 0.000316 µM): 61.8% | viability, T/C (second compound 1 µM, first compound 0.001 µM): 56.7% | viability, T/C (second compound 1 µM, first compound 0.00316 µM): 41.1% | viability, T/C (second compound 1 µM, first compound 0.01 µM): 21.3% | viability, T/C [5]: 8.54% | viability, T/C [6]: 4.7% | viability, T/C (second compound 3.16 µM, first compound 0.000316 µM): 66.4% | viability, T/C (second compound 3.16 µM, first compound 0.001 µM): 61.9% | viability, T/C (second compound 3.16 µM, first compound 0.00316 µM): 44.2% | viability, T/C (second compound 3.16 µM, first compound 0.01 µM): 17.8% | viability, T/C [7]: 8.75% | viability, T/C [8]: 3.88% | viability, T/C (second compound 10 µM, first compound 0.000316 µM): 50.7% | viability, T/C (second compound 10 µM, first compound 0.001 µM): 46.7% | viability, T/C (second compound 10 µM, first compound 0.00316 µM): 37.4% | viability, T/C (second compound 10 µM, first compound 0.01 µM): 20.5% | viability, T/C [9]: 9.34% | viability, T/C [10]: 4.4%
